pIC50: −log10 of the molar value.
Test: Compound was evaluated for its inhibitory potency against Opioid receptor delta 1 of Guinea pig ileum

With Cc1cc(O)ccc1C[C@@H](N)C(=O)N[C@H]1C(=O)NCC(=O)N[C@@H](Cc2ccccc2)C(=O)N[C@@H](C(=O)O)C(C)(C)SSC1(C)C the pIC50 was 5.18.

C[C@@H](c1ccc(O)cc1)[C@H](N)C(=O)N[C@H]1C(=O)NCC(=O)N[C@@H](Cc2ccccc2)C(=O)N[C@@H](C(=O)O)C(C)(C)SSC1(C)C showed a pIC50 of 5.14.

Compound C[C@H](c1ccc(O)cc1)[C@@H](N)C(=O)N[C@H]1C(=O)NCC(=O)N[C@@H](Cc2ccccc2)C(=O)N[C@@H](C(=O)O)C(C)(C)SSC1(C)C has a pIC50 of less than 4.00.

Work on C[C@H](c1ccc(O)cc1)[C@H](N)C(=O)N[C@H]1C(=O)NCC(=O)N[C@@H](Cc2ccccc2)C(=O)N[C@@H](C(=O)O)C(C)(C)SSC1(C)C yielded a pIC50 of 5.47.
